1 compound from patent US20240398814A1, “KRAS INHIBITOR AND HDAC INHIBITOR COMBINATION FOR THE TREATMENT OF CANCER” (Northwestern University, priority 2023, published 2024) can be followed below.

For one test, the system named is KL lung tumors. Nature of the test: 6-week in vivo entinostat and trametinib treatment, flow cytometry immune profiling. Set-up: species or system mouse. The following applies: 6 weeks; percentage of total CD45+ cells. The procedure:
The 6-week duration study was carried out according to the same experimental design except for the following: To ensure an extended treatment duration, treatment was initiated after tumor burden was detected by BLI in >30% of mice in the study. Entinostat was administered at a dose of 10 mg/kg to assess systemic drug impact at a dose corresponding to potent tumor growth control. Because mice were gavaged twice daily for an extended duration, an additional drug holiday was built into the dosing schedule starting after 3 weeks of treatment; mice were administered drug using the following schedule: 4 days on, 1 day off, 1 day on, and 1 day off (imaging day).
Tumor digestion and cell isolation: Lungs were removed from the chest, washed with PBS, dried on paper towels and then tumor nodules were excised from adjacent tissue and both adjacent tissue and nodules were weighed. Nodules or adjacent tissue was minced into small pieces and suspended in digestion media consisting of RPMI 1640 with 2% FBS, 0.5 ug/mL of DNase I and 1 unit/mL collagenase Type I (Sigma-Aldrich Cat #0000137295) and placed in an incubator at 37° C. for 45 minutes, shaking once during digestion. […]
(A flow cytometer gives signals particle by particle.)

A further test deals with KL NSCLC GEMM. The test can be described thus: In vivo entinostat and trametinib treatment, 42 days, tumor burden. On the set-up: species or system mouse. The following applies: endpoint after 42 days; entinostat 10 mg/kg, trametinib 1 mg/kg, oral gavage. The method, then:
Bioluminescent imaging was performed biweekly using an IVIS Spectrum (Caliper Life Sciences) using Living Image software (Perkin Elmer). Mice were injected intraperitoneally with 150 mg/kg D-luciferin (Caliper Life Sciences), anesthetized with isoflurane and imaged both ventrally and dorsally 10 minutes post luciferin injection. The total lung photon flux for each animal is calculated by the combination of ventral and dorsal photon flux calculated within a region of interest (ROI) encompassing the thorax.
Mice were intratracheally intubated with Lentivirus expressing Cre recombinase to initiate tumorigenesis and imaged […] starting 4 weeks post-Cre. Treatment was initiated at day 34 post-Cre (FIG. 5). In vivo treatment doses were selected based on publications (76-79). […]
Total lung tumor burden was quantitated from H&E sections using Inform v2.1 image analysis software (Cambridge Research and Instrumentation) in a non-biased manner. […] The quantitation data from this analysis was then used to calculate the percentage of tumor area as normalized to total lung area (tumor area+normal lung area).
Quantitation of each individual tumor was measured from H&E sections using morphometric analysis in Panoramic viewer software (Perkin Elmer), which calculates the size of each identified tumor by area in squared microns. […]

For `Nc1ccccc1NC(=O)c1ccc(CNC(=O)OCc2cccnc2)cc1` [entinostat], the “gMDSCs in lung tumors” value in the test on KL lung tumors is given as “No changes were observed”. Besides, the “tumor burden quantitated from H&E-stained sections (tumor area as percentage of total lung area)” value in the test on KL NSCLC GEMM is recorded as “neither entinostat nor trametinib alone impacted tumor burden”.
